The subject of data set [1] is PD-L1 expression in E0771 cells. Type of data set: cell-based, murine.
Data set [2] has as its system PD-L1 in 4T1, E0771, MC38 tumors. Put plainly: Intratumoral PD-L1 immunofluorescence in engrafted 4T1, E0771 and MC38 tumors. Type of data set: in vivo, mice. The conditions noted are these: LEM 0.25 mg/kg every other day for 5 doses; two days after final dose.
Data set [3] deals with irAE target organs (liver, kidney), spleen. Put plainly: PD-L1 expression and T cell infiltration in normal tissues (liver, kidney, spleen) of E0771 tumor-bearing mice. Type of data set: in vivo, C57BL/6 mice. The protocol:
E0771 cells (0.5×10^6) were orthotopically transplanted into C57BL/6 mice (day 0), which were divided into 6 treatment groups: vehicle, echinomycin (LEM), anti-CTLA-4 (9D9), 9D9+echinomycin, 9D9+echinomycin+XMG1.2 (an anti-IFNγ antibody), or 9D9+RMP1-14. Echinomycin (0.25 mg/kg) or mAbs (0.2 mg/mouse/injection) were given on days 6, 8, 10, and 12. On day 14, the mice were euthanized, perfused, and the spleens were dissociated and analyzed by flow cytometry, or stimulated for 4 hours with PMA+ionomycin+GolgiStop prior to intracellular staining for IFNγ. The liver and kidney were processed for immunofluorescence analysis for PD-L1. FIG. 7A. PD-L1 expression in the tumor-bearing mice treated with different therapies. Representative immunofluorescence images shown for kidney (upper) and liver tissues (lower) of mice from indicated treatment groups stained by anti-PD-L1 and DAPI. FIGS. 7B-D. T cell infiltration in the liver and kidney of tumor-bearing mice. Representative immunofluorescence images from mice in the indicated treatment groups after staining with anti-CD3 and DAPI are shown in FIG. 7B for kidney (upper panel) and liver tissues (lower panel). T cell infiltration scores in the kidney (FIG. 7C) and liver (FIG. 7D) are shown as mean±SEM infiltration scores for the kidney (FIG. 7C) and liver tissues (FIG. 7D). T cell infiltration scoring range: 0, normal/none; 1, minimal; 2, mild; 3, moderate; 4, severe. FIG. 7E. Frequency of splenic Tc1 cells among CD8^+ T cells (gated on Singlets/Live_CD45^+/CD3^+/CD8^+CD4^−), expressed as the mean±SEM. FIG. 7F. Frequencies of splenic Th1 cells among CD4^+ T cells (gated on Singlets/Live_CD45^+/CD3^+/CD8^−CD4^+), expressed as the mean±SEM. FIG. 7G. Frequency of splenic T cells (gated on Singlets/Live_CD45^+/CD3^+/CD8^+CD4^−) among total hematopoietic cells (gated on Singlets/Live_CD45^+). Representative data are shown for one of at least two independent experiments. FIG. 7H. CD3 and cleaved-caspase 3 staining in kidney and liver. Representative immunofluorescence images shown for kidney (upper) and liver tissues (lower) of mice that received 9D9 or 9D9+LEM. Caspase 3 positive cells are indicated with arrows. All data is representative of at least two independent experiments. In FIGS. 7C-G, data are presented as the mean±SEM with each dot representing an individual mouse, analyzed by one-way ANOVA with Sidak's posttest.

The test system of data set [4] is E0771 tumor microenvironment. Put plainly: Flow cytometry of dissociated E0771 tumors (tumor cells, myeloid cells, TILs). Type of data set: in vivo, C57BL/6 mice. Background: In flow cytometry, cells or beads pass a laser one at a time.

Consider one molecule from patent US20240139280A1, “USE OF HIF-1-ALPHA INHIBITORS IN CANCER IMMUNOTHERAPY” (ONCOC4, INC., priority 2021, published 2024).

As for `CSC1SC[C@H]2C(=O)N(C)[C@@H](C(C)C)C(=O)OC[C@@H](NC(=O)c3cnc4ccccc4n3)C(=O)N[C@@H](C)C(=O)N(C)[C@@H]1C(=O)N(C)[C@@H](C(C)C)C(=O)OC[C@@H](NC(=O)c1cnc3ccccc3n1)C(=O)N[C@@H](C)C(=O)N2C` (stereo in doubt) [echinomycin, N,N′-(2,4,12,15,17,25-hexamethyl-11,24-bis(1-methylethyl)-27-(methylthio)-3,6,10,13,16,19,23,26-octaoxo-9,22-dioxa-28-thia-2,5,12,15,18,25-hexaazabicyclo(12.12.3)nonacosane-7,20-diyl)bis(2-quinoxalinecarboxamide)], the “PD-L1 expression in sh-Hif1α E0771 cells” value in data set [1] is reported as “abrogated the ability for echinomycin to decrease PD-L1 protein”. Moreover, the PD-L1 protein entry in data set [1] (E0771 cells, normoxia, echinomycin 0.45 nM, 48 hours) was “reduced PD-L1 protein”. Moreover, the “PD-L1 expression in sh-Scr E0771 cells” value in data set [1] (scrambled shRNA, echinomycin 1.35 nM) is “inhibitory effect of echinomycin on PD-L1 expression was preserved”. In data set [2], the “intratumoral PD-L1 expression (immunofluorescence)” value was “marked reduction in PD-L1 expression”. In data set [3] (E0771 tumor-bearing C57BL/6, anti-CD3 immunofluorescence), the “T cell infiltration in liver and kidney” value was “did not stimulate increased infiltration”. For the same molecule, the “PD-L1 expression in liver and kidney (immunofluorescence)” value in data set [3] (E0771 tumor-bearing C57BL/6, echinomycin 0.25 mg/kg, mAbs 0.2 mg/mouse/injection) is “also induced PD-L1”. In addition, the “PD-L1 expression in normal tissues including liver, kidney, salivary gland and colon” value in data set [3] (immunocompetent mice) is “induced PD-L1 expression”. Also, the “PD-L1 induction in the liver in mice with conditional knockout of Hif1α in T cells” value in data set [3] (mouse, in vivo) is on record as “preserved regardless of the mouse genotype”. The “inhibition of PD-L1 on tumor cells in mice with conditional knockout of Hif1α in T cells” value in data set [4] (Hif1α conditional knockout in T lineages) was “preserved”. In addition, the “CD3 TIL infiltration into hypoxic areas of the tumors” value in data set [4] (echinomycin-treated mice) was “increase in CD3 TIL infiltration into hypoxic areas”.
